Tests used:
Assay in all cases: cells
DSH1 = type: functional, cell-based, Homo sapiens; conditions: Homo sapiens, DSH1;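 further: growth inhibition of human DSH1 cells, measured with a cell viability readout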
Description: SANGER: Inhibition of human DSH1 cell growth in a cell viability assay.

MZ2-MEL = type: functional, cell-based, Homo sapiens; conditions: Homo sapiens, MZ2-MEL;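 further: growth inhibition of MZ2-MEL cells read out with a cell viability assay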
Description: SANGER: Inhibition of human MZ2-MEL cell growth in a cell viability assay.

ES7 = type: functional, cell-based, Homo sapiens; conditions: Homo sapiens, ES7;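 further: growth inhibition of cultured human ES7 cells, read out as cell viability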
Description: SANGER: Inhibition of human ES7 cell growth in a cell viability assay.

SNB-75 = type: functional, cell-based, Homo sapiens; conditions: Homo sapiens, SNB-75;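 further: cell viability assay measuring growth inhibition of human SNB-75 cells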
Description: SANGER: Inhibition of human SNB75 cell growth in a cell viability assay.

ES4 = type: functional, cell-based, Homo sapiens; conditions: Homo sapiens, ES4;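 further: growth inhibition of human ES4 cells, read out by a cell viability assay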
Description: SANGER: Inhibition of human ES4 cell growth in a cell viability assay.

SCH = type: functional, cell-based, Homo sapiens; conditions: Homo sapiens, SCH;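 further: growth inhibition of human SCH cells, read out in a cell viability assay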
Description: SANGER: Inhibition of human SCH cell growth in a cell viability assay.

SNU1 = type: functional, cell-based; conditions: Homo sapiens;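 further: growth inhibition of human NCI-SNU-1 cells, measured with a cell viability assay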
Description: SANGER: Inhibition of human NCI-SNU-1 cell growth in a cell viability assay.

NCI-H226 = type: functional, cell-based, Homo sapiens; conditions: Homo sapiens, NCI-H226;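 further: cell viability read-out used to gauge growth inhibition of the cells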
Description: SANGER: Inhibition of human NCI-H226 cell growth in a cell viability assay.

SK-MEL-2 = type: functional, cell-based, Homo sapiens; conditions: Homo sapiens, SK-MEL-2;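 further: growth inhibition of human SK-MEL-2 cells measured with a cell viability assay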
Description: SANGER: Inhibition of human SK-MEL-2 cell growth in a cell viability assay.

SJSA-1 = type: functional, cell-based, Homo sapiens; conditions: Homo sapiens, SJSA-1;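 further: growth inhibition of human SJSA-1 cells, read out through a cell viability measurement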
Description: SANGER: Inhibition of human SJSA-1 cell growth in a cell viability assay.

DMS-114 = type: functional, cell-based, Homo sapiens; conditions: Homo sapiens, DMS-114
LB2241-RCC = type: functional, cell-based, Homo sapiens; conditions: Homo sapiens, LB2241-RCC;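 further: cell viability assay measuring how strongly the cultured human renal carcinoma line is prevented from growing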
Description: SANGER: Inhibition of human LB2241-RCC cell growth in a cell viability assay.

TGW = type: functional, cell-based; conditions: Homo sapiens;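 further: growth inhibition of human TGW cells, read out with a cell viability assay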
Description: SANGER: Inhibition of human TGW cell growth in a cell viability assay.

KU812 cell line = type: functional, cell-based; conditions: Homo sapiens;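 further: growth inhibition of KU812 cells, read out with a cell viability assay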
Description: SANGER: Inhibition of human KU812 cell growth in a cell viability assay.

L-428 = type: functional, cell-based; conditions: Homo sapiens
Description: SANGER: Inhibition of human L-428 cell growth in a cell viability assay.

RCC10RGB = type: functional, cell-based, Homo sapiens; conditions: Homo sapiens, RCC10RGB;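 further: growth inhibition of human RCC10RGB cells, read out by a cell viability assay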
Description: SANGER: Inhibition of human RCC10RGB cell growth in a cell viability assay.

BV-173 = type: functional, cell-based; conditions: Homo sapiens
Description: SANGER: Inhibition of human BV-173 cell growth in a cell viability assay.

no-11 = type: functional, cell-based, Homo sapiens; conditions: Homo sapiens;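 further: growth inhibition of human NO-11 cells, read out with a cell viability assay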
Description: SANGER: Inhibition of human no-11 cell growth in a cell viability assay.

KALS-1 = type: functional, cell-based, Homo sapiens; conditions: Homo sapiens, KALS-1;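 further: growth inhibition of KALS-1 cells, determined with a cell viability assay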
KM12 = type: functional, cell-based, Homo sapiens; conditions: Homo sapiens, KM12;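 further: KM12 cell growth inhibition, read out with a cell viability assay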
Description: SANGER: Inhibition of human KM12 cell growth in a cell viability assay.

MHH-PREB-1 = type: functional, cell-based; conditions: Homo sapiens;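 further: cell viability assay measuring inhibition of proliferation of human MHH-PREB-1 cells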
Description: SANGER: Inhibition of human MHH-PREB-1 cell growth in a cell viability assay.

NCI-H82 = type: functional, cell-based; conditions: Homo sapiens;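 further: growth inhibition of NCI-H82 cells, measured with a cell viability readout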
Description: SANGER: Inhibition of human NCI-H82 cell growth in a cell viability assay.

LOX IMVI = type: functional, cell-based; conditions: Homo sapiens
Description: SANGER: Inhibition of human LOXIMVI cell growth in a cell viability assay.

LB996-RCC = type: functional, cell-based; conditions: Homo sapiens
Description: SANGER: Inhibition of human LB996-RCC cell growth in a cell viability assay.

no-10 = type: functional, cell-based, Homo sapiens; conditions: Homo sapiens;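 further: growth inhibition of no-10 cells, read out with a cell viability assay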
Description: SANGER: Inhibition of human no-10 cell growth in a cell viability assay.

Lu-65 = type: functional, cell-based; conditions: Homo sapiens;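 further: growth inhibition of Lu-65 cancer cells, read out by a cell viability assay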
Description: SANGER: Inhibition of human LU-65 cell growth in a cell viability assay.

Structure (SMILES)	IC50 (DSH1) [nM]	IC50 (MZ2-MEL) [nM]	IC50 (ES7) [nM]	IC50 (SNB-75) [nM]	IC50 (ES4) [nM]	IC50 (SNU1) [nM]	IC50 (NCI-H226) [nM]	IC50 (SK-MEL-2) [nM]	IC50 (SJSA-1) [nM]	IC50 (DMS-114) [nM]	IC50 (LB2241-RCC) [nM]	IC50 (TGW) [nM]	IC50 (KU812 cell line) [nM]	IC50 (L-428) [nM]	IC50 (RCC10RGB) [nM]	IC50 (BV-173) [nM]	IC50 (no-11) [nM]	IC50 (KALS-1) [nM]	IC50 (KM12) [nM]	IC50 (MHH-PREB-1) [nM]	also measured
C=C1C(=O)O[C@@H]2C3O[C@]3(C)CC/C=C(\C)CC[C@@H]12 (stereo partly drawn)	> 5000	> 5000	> 5000	> 5000	> 5000	> 5000	> 5000	> 5000	> 5000	> 5000	> 5000	> 5000	> 5000	> 5000	> 5000	> 5000	> 5000	> 5000	> 5000	> 5000	IC50 (SCH): > 5000 nM; IC50 (NCI-H82): > 5000 nM; IC50 (LOX IMVI): > 5000 nM; IC50 (LB996-RCC): > 5000 nM; IC50 (no-10): 1340 nM; IC50 (Lu-65): > 5000 nM
CC1=C2C[C@H]3[C@@H](CC=C4C[C@@H](O)CC[C@@]43C)[C@@H]2CC[C@]12O[C@@H]1C[C@H](C)CN[C@H]1[C@H]2C [CYCLOPAMINE]	> 16000	> 16000	> 16000	> 16000	> 16000	> 16000	> 16000	> 16000	> 16000	> 16000	> 16000	> 16000	> 16000	> 16000	> 16000	> 16000	> 16000	> 16000	> 16000	> 16000	IC50 (SCH): > 16000 nM; IC50 (NCI-H82): > 16000 nM; IC50 (LOX IMVI): > 16000 nM; IC50 (LB996-RCC): > 16000 nM; IC50 (no-10): 9900 nM; IC50 (Lu-65): > 16000 nM
CS(=O)(=O)CCNCc1ccc(-c2ccc3ncnc(Nc4ccc(OCc5cccc(F)c5)c(Cl)c4)c3c2)o1 [LAPATINIB]	94	> 2000	> 2000	> 2000	> 2000	> 2000	> 2000	> 2000	> 2000	> 2000	1150	> 2000	> 2000	> 2000	> 2000	> 2000	> 2000	> 2000	> 2000	> 2000	IC50 (SCH): > 2000 nM; IC50 (NCI-H82): > 2000 nM; IC50 (LOX IMVI): > 2000 nM; IC50 (LB996-RCC): 1360 nM; IC50 (no-10): > 2000 nM; IC50 (Lu-65): > 2000 nM
CCc1nc(N)nc(N)c1-c1ccc(Cl)cc1 [PYRIMETHAMINE]	4980	> 20000	14800	> 20000	3120	14700	> 20000	> 20000	3770	> 20000	> 20000	> 20000	15600	> 20000	> 20000	12700	> 20000	12000	2320	> 20000	IC50 (SCH): 16900 nM; IC50 (NCI-H82): 9110 nM; IC50 (LOX IMVI): 13000 nM; IC50 (LB996-RCC): > 20000 nM; IC50 (no-10): > 20000 nM; IC50 (Lu-65): 11000 nM
O=C(/C=C/c1ccccc1)NC(NC(=S)Nc1cccc2cccnc12)C(Cl)(Cl)Cl (stereo not drawn) [SALUBRINAL]	> 16000	> 16000	> 16000	> 16000	> 16000	> 16000	> 16000	> 16000	> 16000	> 16000	4990	> 16000	> 16000	> 16000	> 16000	11500	> 16000	> 16000	> 16000	6790	IC50 (SCH): > 16000 nM; IC50 (NCI-H82): > 16000 nM; IC50 (LOX IMVI): > 16000 nM; IC50 (LB996-RCC): > 16000 nM; IC50 (no-10): > 16000 nM; IC50 (Lu-65): > 16000 nM
CN1CCN(CCOc2cc(OC3CCOCC3)c3c(Nc4c(Cl)ccc5c4OCO5)ncnc3c2)CC1 [SARACATINIB]	> 2000	> 2000	> 2000	> 2000	> 2000	> 2000	> 2000	> 2000	> 2000	> 2000	> 2000	> 2000	> 2000	> 2000	> 2000	652	> 2000	1990	> 2000	> 2000	IC50 (NCI-H82): > 2000 nM; IC50 (LOX IMVI): > 2000 nM; IC50 (LB996-RCC): 442 nM; IC50 (no-10): > 2000 nM; IC50 (Lu-65): > 2000 nM
CO[C@H]1C[C@@H]2CC[C@@H](C)[C@@](O)(O2)C(=O)C(=O)N2CCCC[C@H]2C(=O)O[C@H]([C@H](C)C[C@@H]2CC[C@@H](O)[C@H](OC)C2)CC(=O)[C@H](C)/C=C(\C)[C@@H](O)[C@@H](OC)C(=O)[C@H](C)C[C@H](C)/C=C/C=C/C=C/1C [SIROLIMUS]	> 100	> 100	> 100	> 100	< 0.391	> 100	> 100	> 100	> 100	> 100	> 100	> 100	2.01	> 100	> 100	84	83.2	6.56	> 100	32.4	IC50 (NCI-H82): > 100 nM; IC50 (LOX IMVI): > 100 nM; IC50 (LB996-RCC): 93.4 nM; IC50 (no-10): 7.29 nM; IC50 (Lu-65): > 100 nM
CNC(=O)c1cc(Oc2ccc(NC(=O)Nc3ccc(Cl)c(C(F)(F)F)c3)cc2)ccn1 [SORAFENIB]	> 4000	> 4000	> 4000	> 4000	> 4000	2320	> 4000	> 4000	> 4000	> 4000	> 4000	> 4000	> 4000	> 4000	> 4000	> 4000	> 4000	> 4000	1020	> 4000	IC50 (SCH): > 4000 nM; IC50 (NCI-H82): > 4000 nM; IC50 (LOX IMVI): > 4000 nM; IC50 (LB996-RCC): > 4000 nM; IC50 (no-10): 1620 nM; IC50 (Lu-65): > 4000 nM
CCC(=O)N1CCN(c2ccc(-n3c(=O)ccc4cnc5ccc(-c6cnc7ccccc7c6)cc5c43)cc2C(F)(F)F)CC1 [TORIN1]	71.7	23.4	> 1200	63.4	83	> 1200	> 1200	464	41.9	240	> 1200	375	13	103	> 1200	22	14	12	76.4	18.2	IC50 (SCH): 140 nM; IC50 (NCI-H82): 141 nM; IC50 (LOX IMVI): 125 nM; IC50 (LB996-RCC): 11.4 nM; IC50 (no-10): 15.8 nM; IC50 (Lu-65): > 1200 nM
Cc1cc(Nc2cc(N3CCN(C)CC3)nc(Sc3ccc(NC(=O)C4CC4)cc3)n2)n[nH]1 [TOZASERTIB]	> 2000	> 2000	> 2000	> 2000	911	> 2000	> 2000	> 2000	> 2000	> 2000	> 2000	> 2000	> 2000	> 2000	> 2000	126	> 2000	> 2000	264	> 2000	IC50 (SCH): > 2000 nM; IC50 (NCI-H82): > 2000 nM; IC50 (LOX IMVI): > 2000 nM; IC50 (LB996-RCC): > 2000 nM; IC50 (no-10): > 2000 nM; IC50 (Lu-65): > 2000 nM

— ChEMBL document CHEMBL1201861, “Genomics of Drug Sensitity in Cancer screening data, Wellcome Trust Sanger Institute”
